Measurements: patent US20250332109A1 (Veradermics, Incorporated, priority 2024, published 2025)
Read-outs that look alike come from different tables or passages of the source.

What was measured:
[1] = primarily by conjugation with glucuronic acid; cited from earlier work
[2] = cited from earlier work
patients = settings: chronic therapy; initially, then recovers; cited from earlier work
mice = settings: dietary, up to 2 years, 10, 25, and 63 mg/kg/day; cited from earlier work
rabbits = settings: oral, 5 times the maximum recommended oral antihypertensive human dose; cited from earlier work
[3] = test system: person with androgenetic alopecia; test: Case study: person with androgenetic alopecia and hypertension treated with oral minoxidil; settings: 0.625 mg four times a day
[4] = test system: person with androgenetic alopecia; settings: 1.25 mg QID
male adults with AGA = settings: 5 mg oral at bedtime; 24 week follow up; cited from earlier work
hypertensive patients = settings: intravenous infusion; cited from earlier work
subjects = settings: topical foam 5% versus vehicle topical foam; 404 subjects enrolled; cited from earlier work

Nc1cc(N2CCCCC2)nc(N)[n+]1[O-] [minoxidil]
fraction of oral dose metabolized [1]: About 90% | dose dependence of PK ([2]; 2.5 mg, 5 mg, 10 mg oral, PK and urinary excretion data): dose-independent PK | duration plasma concentrations above 20 ng/mL ([2]; 5 mg dose level): around 1 h | duration plasma concentrations above 20 ng/mL ([2]; 10 mg dose level): around 2 h | observed half-life ([2]; immediate release formulation, healthy subjects): around 1 h | effect on blood pressure ([2]; normotensive subjects, 2.5 mg, 5 mg, or 10 mg oral): little effect on blood pressure | temporary decrease in hematocrit, hemoglobin, and erythrocyte count (hemodilution) (patients): approximately 7% | incidence of malignant lymphomas in females (mice): increased incidence of malignant lymphomas | fetal resorption (rabbits): increased fetal resorption | reductions in blood pressure [3]: did not experience significant reductions in blood pressure | unwanted hair growth or other adverse events [3]: No unwanted hair growth or other adverse events | unwanted hair growth or other adverse events, including cardiac effects [4]: No unwanted hair growth or other adverse events | subjects reporting edema (male adults with AGA): 2.9% | subjects reporting vertigo (male adults with AGA): 2.9% | steady state plasma concentration associated with significant (>5 beats per minute) changes in heart rate (hypertensive patients): above 20 ng/mL | SAEs reported in treated subjects (subjects): Six
